Assay results taken from patent US20140315738A1, “MARINE MEDAKA GENES RESPONDING TO THE EXPOSURE OF ENDOCRINE-DISRUPTING CHEMICALS, AND METHOD FOR DIAGNOSING AN AQUATIC ECO-SYSTEM CONTAMINATION USING SAME” (priority 2011, published 2014).

Tested on: Javanese medaka (Oryzias javanicus) livers
Test: real-time quantitative PCR of liver gene expression after exposure to BPA
Format: in vivo
Settings: 76 μg/L, 48 hr, β-actin control gene
Method: To 3 L beaker with 2 L filtered seawater therein, 10 male Javanese medaka bred in culture water tank were transported each time, and acclimated for 24 hr. […] Additionally, five Javanese medaka of Example <1-1> were exposed to BPA (76 μg/L) for 48 hr. […] The Javanese medaka was transported to ice water, one at a time, which momentarily stunned it, followed by beheading and evisceration and liver removal.
Primers for real-time quantitative PCR (RT-PCR) for the above genes were designed and synthesized, and sequences of the primers of the genes for real time quantitative PCT are listed in Table 6 below.
With RNA template extracted with the method of Example <2-1>, cDNA was synthesized using AB High Capacity RAN-to-cDNA Kit (Applied Biosystems, USA). RNA in the amount of 1 μg was seeded, added with distilled water and titrated to 9 μl. 2×RT buffer (10 μl), and 20× enzyme Mix 1 μl were mixed well, centrifuged and precipitated, and allowed to react at 37° C. for 60 min. The reactant was heated at 95° C. for 5 min, after which reaction was completed. The synthesized cDNA was stored at −20° C.
To the 0.5 μg synthesized cDNA (corresponding to approximately 10 ng/μl), 0.8 primer pairs of corresponding genes (10 pmol/μl), and 2 SYBR1 mixture (10 μl) were added. The final amount was titrated to 20 μl using distilled water. At temperature condition of 95° C. 10 min, 95° C. 30 sec, 60° C. 30 sec, 72° C. 30 sec, 40 cycles of PCR were conducted.
CT values of the respective samples after exposure to BPA between control genes (β-actin) and genes of interest were compared with each other, and the relative expression differences of the genes of interest were quantified into relative values according to Relative Standard Curve (Table 7).

## CC(C)(c1ccc(O)cc1)c1ccc(O)cc1 [BPA, Bisphenol A]
  Fold difference, Apolipoprotein E1 (AP): +2.30 fold
  Fold difference, Arylamine N-acetyl transferase (ANAT): −1.69 fold
  Fold difference, Basigin (Bsgn): +4.25 fold
  Fold difference, C1q-like adipose specific protein (C-ASP): −2.17 fold
  Fold difference, Calcium binding protein P22 (CBP-P22): +1.19 fold
  Fold difference, Catalase (Cat): −1.49 fold
  Fold difference, Ceruloplasmin (Cer): +2.09 fold
  Fold difference, Chitinase (Chi): −5.56 fold
  Fold difference, Choline kinase (Chka): +4.18 fold
  Fold difference, Choriogenin L (ChL): +50.00 fold
  Fold difference, Complement component C8 beta (C8): −1.37 fold
  Fold difference, Complement factor B/C2-B (CF-B/C2): −2.27 fold
  Fold difference, Delta 6-desaturase (FD6D): +1.43 fold
  Fold difference, Delta-6 fatty acyl desaturase (FADSD6): −1.39 fold
  Fold difference, Glutaminase (Gls): −1.35 fold
  Fold difference, Glutathione S-transferase (Gst): −1.85 fold
  Fold difference, Hepcidin (Hep): −1.14 fold
  Fold difference, Leukocyte elastase inhibitor (LE): +1.12 fold
  Fold difference, Lipoprotein lipase (LPL): +1.11 fold
  Fold difference, N-acetyltransferase (NAT13): −2.50 fold
  Fold difference, Plasminogen (Plg): +1.25 fold
  Fold difference, Retinol binding protein 4 (RBP4): +1.12 fold
  Fold difference, Ring finger protein 141 (RFP): +1.23 fold
  Fold difference, TBT-binding protein (TBT-bp): −1.66 fold
  Fold difference, Transferrin (TF): −1.30 fold
  Fold difference, Uridine phosphorylase 2 (Upp2): −1.72 fold
  Fold difference, Vitellogenin 1 (Vit1): −100.00 fold
  Fold difference, Warm temperature acclimation (C243) (Wap65): +1.07 fold
